Measured values as given in US9861653B2, “Synergistic anti-cancer composition and a process for the preparation thereof” (Council of Scientific and Industrial Research, priority 2012, dated 2018).
“Also recorded” adds a separate entry of the source.

What was measured:
[1] = test system: ANV-1 breast cancer cells with CSC-like property; assay: MTS viability assay on ANV-1 breast cancer cells; format: cell-based, mouse
Protocol: The % of viabilities of treated cells (Y-axis) were calculated with respect to untreated cells [* denotes p<0.001 between DX-ESC8+NRP-1 group with other groups]
Cells were treated with a) DX-nutilin+NRP-1 ShRNA plasmid, b) DX-nutilin+control plasmid, c) DX+NRP-1 ShRNA plasmid, d) nutilin as free drug. The treatments were done in two different conditions, a) continuous treatment for 48 h by the respective formulations with […] effective nutilin concentration; b) treatment for only 4 h by respective formulations with […] effective nutilin concentrations. The % viabilities of treated cells (Y-axis) were calculated with respect to untreated cells.
(§1) Cancer cells (ANV-1, PANC-1, ASPC-1) were inoculated at a concentration of 5000 cells/well of 96-well cell culture plates in 10% Fetal Calf serum (FCS) containing DMEM media. Following an incubation of minimum of 16 h at 37° C., the cells were treated in triplicate with respective lipoplexes (DX-ESC8, DO-ESC8, DX,) pre-complexed with 0.3 μg of NRP-1 or control plasmid amounts per well as discussed in Example 1. The cells were also treated with naked liposomes with or without ESC8 or free drug, ESC8, in a final volume of 300 μl (volume made up with 10% FCS containing DMEM media) continuously for 48 h (mostly) or 72 h. […] Thereafter cells were assayed for viability using MTS assay kit (Promega) following manufacturer's protocol.
For cells treated with DX-nutilin, the test solutions were: a) DX-nutilin pre-complexed with 0.3 µg of NRP-1 Sh-RNA plasmid, b) […] pre-complexed with 0.3 µg control plasmid, c) DX liposome pre-complexed with 0.3 µg NRP-1 Sh-RNA plasmid, d) only […] addition.

[2] = test system: ASPC-1 pancreatic cancer cells; assay: MTS viability assay on ASPC-1 pancreatic cancer cells; format: cell-based, human; conditions: 48 h or 72 h continuous treatment, ESC8 5 μM
Protocol: (§2) Cells were treated for 48 h with a) DX-ESC8+NRP-1 ShRNA plasmid, b) DX-ESC8+control plasmid, c) DO-ESC8+NRP-1 ShRNA plasmid, d) DX+NRP-1 ShRNA plasmid, followed by ESC8 treatment e) ESC8, as free drug at the drug concentration of 5 μM in either naked or respective formulated state. The % of viabilities of treated cells (Y-axis) were calculated with respect to untreated cells [* denotes p<0.01 between DX-ESC8 lipoplex groups with other groups].
Cells were treated for 72 h with a) DX-ESC8+NRP-1 ShRNA plasmid, b) DX-ESC8+control plasmid, c) DX+NRP-1 ShRNA plasmid, d) DO+NRP-1 ShRNA plasmid e) ESC8, as free drug at the drug concentration of 5 μM in either naked or respective formulated state. For groups c and d the liposome concentrations of DX or DO were equivalent to the corresponding liposome concentration in DX-ESC8 containing 5 μM ESC8. The % of viabilities of treated cells (Y-axis) were calculated with respect to untreated cells [* denotes p<0.01 between DX-ESC8 lipoplex groups or DX+NRP-1 ShRNA plasmid group with other groups].
Cancer cells (ANV-1, PANC-1, ASPC-1) were inoculated at a concentration of 5000 cells/well of 96-well cell culture plates in 10% Fetal Calf serum (FCS) containing DMEM media. […]

[3] = test system: PANC-1 pancreatic cancer cells; assay: MTS viability assay on PANC-1 pancreatic cancer cells; format: cell-based, human; conditions: 48 h, ESC8 5 or 2.5 μM
Protocol: as §2, with “DO-ESC8+NRP-1,” for “DO-ESC8+NRP-1 ShRNA plasmid,”, “DO-ESC8+control plasmid” for “DX+NRP-1 ShRNA plasmid, followed by ESC8 treatment”, “concentrations” for “concentration”, “5 or 2.5” for “5”
as §1

CCCCCCCC[N+](C)(CCCCCCCC)CCC[C@]1(O)CC[C@H]2[C@@H]3CCc4cc(O)ccc4[C@H]3CC[C@@]21C [ESC8, 17-α-[3-(N,N-dioctyl,N-methyl-amino)-propan-1-yl]-17β-estradiol]
anticancer effect towards ANV-1 breast cancer cells ([1]; 48 h, ESC8 10 or 5 μM naked or formulated (FIG. 1)): very limited effect; also recorded: least anticancer effect | viability of ANV-1 cells ([1]; 48 h treatment, drug concentration 10 or 5 μM, with respect to untreated cells (FIG. 1)): 60-70% | ESC8 free drug concentration needed to get 95-100% of ANV-1 cell killing ([1]; 72 h treatment): at least 50 μM | visual effect on ANV-1 cells ([1]; shorter treatment time): no visual effect | killing / anticancer effect on ASPC-1 cells [2]: no anticancer effect; also recorded: least toxic effect | anti-cancer effect on PANC-1 cells [3]: no anticancer effect; also recorded: no toxicity
